Data set [1] deals with murine leukemia L1210 cells. The experiment in a line: Amino acid (cytoleucine) transport after ultrasound in L1210 cells. It is filed as cell-based. Particulars: 6 μM sensitizer, 15 min loading at 37° C., only intracellular texaphyrin; ultrasound 1.94 MHz, 3.9 W/cm^2. The method, then:
(§1) The effect of low-level, non-thermal ultrasound on the murine leukemia L1210 cell line in culture, measuring ultrasound-induced cytotoxicity is determined by a modification of the procedure initially described by Kessel et al., 1994. Int. J. Radiat. Biol., 66 (1994). Sonodynamic therapy with and without a texaphyrin and with and without low intensity irradiation of ultrasound. A murine 1210 cell line was used, The cytotoxicity of low-intensity ultrasound on murine leukemia L1210 cells is associated with cell fragmentation, and was detected by measuring the inhibition of the active transport of a non-metabolized amino acid (cytoleucine) and by a viability assay.
(§2) Cell Culture Systems—Murine leukemia L1210 cells were grown in Fischer's medium (GIBCO, Grand Island, N.Y.) supplemented with glutamine, 10% horse serum and gentamicin. All operations were carried out at 37° C. […]
Amino Acid Transport—The effect of ultrasound on the capacity of L1210 cells for concentrative accumulation of the non-metabolized amino-acid cytoleucine was assesed as a probe for damage to membrane […] systems. […] After 15 minutes, the cells were collected by centrifugation, washed with isotonic NaCl and cell radioactivity determined by liquid scintillation counting. […]

For data set [2], the system named is murine leukemia L1210 cells. Description: Cell fragmentation after ultrasound (Coulter particle size distribution). Particulars: 6 μM sensitizer, 15 min loading at 37° C., only intracellular texaphyrin; ultrasound 1.94 MHz, 3.9 W/cm^2. It is filed as cell-based. As to the method:
as §1, §2
Fragmentation and Viability Studies—Cell counts and the particle size distribution were determined with a Coulter Electronics ZM Particle Analyzer and Model 256 Channelyzer. The Channelyzer determines the mean particle volume; intact cells were detected in channels 80-110. […] Cell counts were again determined after incubation for sufficient time to allow the number of control (untreated) cells to reach 20,000/ml, approximately 5 doublings.

Data set [3] has as its system Colon 26 tumor cells. The experiment in a line: Experimental kidney tumor assay of sonodynamic sensitizing activity. It is filed as in vivo, mouse. To be noted: 1.0 mg/kg i.v., ultrasound 24 hours later, 5 minutes, 0.5 and 1 MHz, 8 W/cm^2; sacrifice after 7 days. As to the method: In vivo activity for sonodynamic therapy is determined, e.g., by post-mortum histological examination of tumor tissue by hematoxylin and eosin, as described in Yumita et al., Cancer Letters 112 (1997). The antitumor effects of sonodynamic therapy are evaluated by implanting tumor cells into one kidney in a mouse (the other kidney remaining untreatd and serving as a control). Approximately 24 hours after intravenous administration of a sonodynamic sensitizer to be tested, the mouse is anesthesized and the tumorous kidney exteriorized. The position and the angle of the mouse are adjusted to facilitate ultrasound ultrasound penetration of the entire kidney, with the tumor at the focal spot. Ultrasound is delivered in continuous waves by a focused array transducer, the kidney is returned to the abdominal cavity and the abdomen is closed. After 7 days the mouse is sacrificed and the kidneys stained with hematoxylin and eosin for histologic examination. The tumor bearing and control kidneys are compared.
This procedure is a modification of a procedure initially described by Yumita et al., Cancer Letters 112 (1997).
Colon 26 tumor cells are implanted into one kidney in a male CDF mouse (the other kidney remaining untreated and serving as a control). After 14 days, 1.0 mg/kg of a texaphyrin is administered by intravenous injection. 24 Hours later, the mouse is anesthetized and the tumorous kidney exteriorized. The position and the angle of the mouse are adjusted to facilitate ultrasound ultrasound penetration of the entire kidney, with the tumor at the focal spot. Ultrasound is delivered in continuous waves by a focused array transducer. The tumor is exposed to focused ultrasound for 5 minutes in a progressive wave mode, at a frequency of 0.5 MHz for the first wave and 1 MHz for the second wave, at an intensity of 8 W/cm^2 followed by the second-harmonic superimposition of ultrasound at the same intensity, for a total exposure of 5 minutes. The kidney is returned to the abdominal cavity and the abdomen is closed. […]

A short description of data set [4]: Maximum tolerated dose study. It is filed as in vivo. Particulars: determined in one study; intravenous injection. The method, then: For example, Lutetium Texaphyrin is administered in solution containing 2 mg/ml optionally in 5% mannitol, USP. Dosages of about 1.0 or 2.0 mg/kg to about 4.0 or 5.0 mg/kg, preferably 3.0 mg/kg may be employed, up to a maximum tolerated dose that was determined in one study to be 5.2 mg/kg. The texaphyrin is administered by intravenous injection, followed by a waiting period of from as little as several minutes or about 3 hours to as long as about 72 or 96 hours (depending on the treatment being effected) to facilitate intracellular uptake and clearance from the plasma and extracellular matrix prior to the administration of the sonodynamic agent. The co-administration of a sedative (e.g., benzodiazapenes) and narcotic analgesic are sometimes recommended prior to topical (as opposed to intravascular) light treatment. Topical administration. of Emla cream (lidocaine, 2.5% and prilocaine, 2.5%) under an occlusive dressing and other intradermal, subcutaneous and topical anesthetics may also be employed as necessary to reduce discomfort. Similar patient comfort considerations may apply in sonodynamic therapy, as will be apparent to the treating physician. Subsequent treatments can be provided after suitable time interval, currently approximately 21 days. […]

Data set [5] relates to murine leukemia L1210 cells. The experiment in a line: Viability (growth) assay after ultrasound. It is filed as cell-based. To be noted: for Viability: 6 μM sensitizer, 15 min loading at 37° C., only intracellular texaphyrin, ultrasound 1.94 MHz, 3.9 W/cm^2; for potentiation of the cytotoxic effect of ultrasound: cells previously exposed to 6 μM, ultrasound at 3.9 W/cm. The method, then: as §1
Cell Culture Systems—Murine leukemia L1210 cells were grown in Fischer's medium (GIBCO, Grand Island, N.Y.) supplemented with glutamine, 10% horse serum and gentamicin. All operations were carried out at 37° C. Exponentially growing cells were collected by centrifugation, resuspended (5×10^6 cells/ml) in serum-free Fischer's medium buffered to pH 7.0 with 20 mM HEPES.
Sensitizers—Lutetium Texaphyrin (Lu-Tex or PCI-0123) and Gadolinium Texaphyrin (Gd-Tex or PCI-0120) were dissolved in water at a concentration of 6 μM.
Test Groups—Four groups of cells were established: Control A (no sensitizer and no ultrasound), Control B (no sensitizer, with ultrasound); 6 μM Lu-Tex with ultrasound, and 6 μM Gd-Tex with ultrasound. A small volume of the respective sensitizers were added to the Lu-Tex and Gd-Tex groups followed by a loading incubation of 15 minutes at 37° C. The cells were then suspended in fresh (serum free) medium, such that only intracellular texaphyrin remained.
Ultrasound—Exposure of cell suspensions (except Control A) to ultrasound was carried out in 2.5 cm diameter petri dishes in a bath of degassed water. A 2.54-cm-diameter transducer (Valpey-Fisher) was driven by a power amplifier (ENI 240L) with a continuous wave 1.94 MHz sinusoidal signal source (Wavetek Model 23). The acoustic field was calibrated with a Marconi PVDF membrane hydrophone in a free field condition 3.0 cm from the surface of the transducer which is also the distance from the face to the exposure dish. The acoustic intensity, expressed in terms of the spatial peak temporal average (SPTA), was 3.9 W/cm^2.
Fragmentation and Viability Studies—Cell counts and the particle size distribution were determined with a Coulter Electronics ZM Particle Analyzer and Model 256 Channelyzer. The Channelyzer determines the mean particle volume; intact cells were detected in channels 80-110. Smaler particles represent debris resulting from cell fragmentation. […] Cell counts were again determined after incubation for sufficient time to allow the number of control (untreated) cells to reach 20,000/ml, approximately 5 doublings.

`CC(=O)[O-].CC(=O)[O-].CCc1c(CC)c2cc3nc(cnc4cc(OCCOCCOCCOC)c(OCCOCCOCCOC)cc4ncc4nc(cc1[n-]2)C(CCCO)=C4C)C(C)=C3CCCO.O.[Lu+3]` [Lu-Tex, Lutetium Texaphyrin]: the “Amount of Cytoleucene Transported” value in data set [1] is 2.8 ± 0.3. For the same compound, the Fragmentation in data set [2] is reported as 73 ± 6. Further, the “comparison of tumor-bearing and control kidneys (histologic examination)” value (“comparison … (histologic examination)” for short) in data set [3] is “substantially the same”. This compound also had a maximum tolerated dose in data set [4] of 5.2 mg/kg. Further, in data set [5], the Viability came out at 24 ± 3 and the “potentiation of the cytotoxic effect of ultrasound” value is on record as “substantial potentiation”.
Consider yttrium texaphyrin, for which the “comparison … (histologic examination)” value in data set [3] is recorded as “substantially the same”.
Turning to `CC(=O)[O-].CC(=O)[O-].CCc1c(CC)c2cc3nc(cnc4cc(OCCOCCOCCOC)c(OCCOCCOCCOC)cc4ncc4nc(cc1[n-]2)C(CCCO)=C4C)C(C)=C3CCCO.O.[Gd+3]` [Gd-Tex, Gadolinium Texaphyrin], the “Amount of Cytoleucene Transported” value in data set [1] is 3.2 ± 0.4. In addition, in data set [2], the Fragmentation was determined as 64 ± 4. Further, the “comparison … (histologic examination)” value in data set [3] was “substantially the same”. In data set [5], the Viability was 42 ± 5 and the “potentiation of the cytotoxic effect of ultrasound” value is recorded as “substantial potentiation”.

The values above are taken from US20010002251A1, “Intracellular sensitizers for sonodynamic therapy” (Pharmacyclics, Inc., priority 1998, published 2001).
